From patent US11925634B2, “Use of koumine in preparation of medicament for treatment of inflammatory bowel disease” (Fujian Medical University, priority 2019, dated 2024)

Key:
[1] = test system: mice with DSS-induced bowel inflammation; assay: DSS-induced bowel inflammation in C57BL/6 mice (body weight, defecation, colon length, histopathology); assay type: in vivo; conditions: for histopathological scoring: p<0.01 vs model, FIG. 4
Method: Dextran sulfate sodium (DSS) has an anticoagulant effect and, when orally administered to experimental animals, can cause hyperemia, ulcers, submucosal edema in bowel tissue and other pathological manifestations closely similar to those of clinical IBD patients. Models of DSS-induced bowel inflammation can be taken as basic models for studying the pathogenesis of UC and even IBD and evaluating the efficacy of therapeutic medicaments. In this example, therapeutic effects of koumine were evaluated in a C57BL/6 mouse model of DSS-induced bowel inflammation with the animals' body weight, defecation, pathological manifestations of colonic tissue, expression of MPO in colonic tissue and the like as indicators.
1.1. Experimental Animals Six to eight week old healthy male SPF C57BL/6 mice (weighing 18-22 g) were purchased from Shanghai SLAC Laboratory Animal Co., Ltd. (License No. SOCK (Shanghai) 2017-0005). Prior to study start, the mice were acclimated for 7 days until their body weights reached 20±2 g. They were bred under conditions of a 12/12-h light-dark cycle (light on 8:00-20:00), constant temperature (20-26° C.) and constant humidity (40-70%), with food and water provided ad libitum. Experimental operations were conducted in accordance with regulations of international and local committees on care and use of laboratory animals (the same applies below).
(§1) 1.2. Medicaments and Reagents Koumine hydrochloride (C20H22N2O·HCl) (in the form of a powder) was prepared in the School of Pharmacy, Fujian Medical University (Batch No. KM201610, with a purity of 99.99% as determined by high performance liquid chromatography), stored at 4° C. in the dark, and dissolved in normal saline to a desired concentration before use. DSS was purchased from MP Biomedicals, USA and fully dissolved in distilled water to a desired concentration before use. Mesalazine enteric coated tablets were purchased from Heilongjiang Tianhong Pharmaceutical Co., Ltd. A citrate (pH=6.0) antigen retrieval solution, BSA, an anti-myeloperoxidase primary antibody, an HRP-conjugated goat anti-rabbit secondary antibody and a histochemistry kit for DAB staining were purchased from Wuhan Servicebio Technology Co., Ltd. (the same applies below).
(§2) Fifty-one healthy SPF C57BL/6 mice were randomly assigned into a blank control group (n=6), a model group (n=9) and 4 treatment groups (n=9 for each) respectively administered with low (0.67 mg/kg), medium (2 mg/kg) and high (6 mg/kg) doses of koumine, as well as mesalazine (100 mg/kg) as a positive control. A mouse model of DSS-induced bowel inflammation was established by allowing the mice in the model group and the individual treatment groups to have free access to a 2.5% DSS solution in water for 8 days and providing ad libitum access to normal water to the mice in the blank control group. From the day of induction (D0), the mice in the treatment groups received intragastric administration (0.1 mL/10 g) once a day for 9 consecutive days (D0-D8), while those in the control and model groups were given the same volumes of normal saline also by intragastric administration throughout the same period. Body weight measurements were taken and fecal occult blood tests were performed daily. One hour after the last administration (D8), the mice were sacrificed by cervical dislocation under anesthesia. Immediately after that, a bowel segment from the terminal ileum to the anus was removed from each mouse, and a length from the ileocolonic junction to the anus was measured and recorded. Colonic tissue was taken 1 cm away from the anus for histopathological examination, as well as for immunohistochemical detection for the expression of MPO. Additionally, colonic tissue was taken 1-2 cm away from the anus for MPO activity determination.

myeloperoxidase (MPO) [2] = assay: MPO activity assay in colonic tissue homogenates, OXA model; assay type: in vivo, BALB/c mice; conditions: p<0.01, p<0.001 vs model, FIG. 10
Method: […]

myeloperoxidase (MPO) [3] = assay: Immunohistochemical detection of MPO expression in colonic tissue, OXA model; assay type: in vivo, BALB/c mice
Method: […]

myeloperoxidase (MPO) [4] = assay: Immunohistochemical detection of MPO expression in colonic tissue, DSS model; assay type: in vivo, C57BL/6 mice
Method: as §1, §2

[5] = test system: mice with OXA-induced colitis; assay: OXA-induced colitis in BALB/c mice (body weight, colon length, histomorphology); assay type: in vivo
From the text: OXA-induced colitis causes lesions primarily in the distal colon and resembles human IBD in terms of histological characteristics and distribution of inflammation, which can be manifested as a decrease in goblet cells.
Six to eight week old healthy male SPF BALB/c mice were purchased from Shanghai SLAC Laboratory Animal Co., Ltd. (License No. SOCK (Shanghai) 2017-0005).
The same koumine hydrochloride and mesalazine as in Example 1 were used. OXA was purchased from Sigma, USA and prepared in the form of a solution before use by fully dissolving it in absolute ethanol preheated to 35° C. When used for an enema, the solution was diluted 1-fold with normal saline to a desired concentration. Absolute ethanol was purchased from Merck, Germany. All the other reagents were the same as in Example 1.
Seventy-four BALB/c mice were randomly assigned into a blank control group (n=6), a vehicle control group (n=10), a model group (n=19) and low-dose (n=10), medium-dose (n=9) and high-dose (n=12) koumine treatment groups and another treatment group (n=8) administered with mesalazine as a positive control. A mouse model of OXA-induced UC was established by sensitizing and then giving enemas to the mice in the model group and the individual treatment groups. Specifically, each of the mice was anesthetized and sensitized by drop-wise applying a 3% solution (150 μL) of OXA in absolute ethanol to a shaved abdominal area (about 1.5 cm×1.5 cm), and received an enema using a 1% solution of OXA in 50% ethanol (100 μL) five days following the sensitization (D0). The mice in the vehicle and blank control groups were treated similarly, except for drop-wise application of 150 μL absolute ethanol and normal saline in the sensitization phase, respectively, and use of 100 μL of 50% ethanol and the same volume of normal saline in the enema phase, respectively. From the day of enema administration (D0), the mice in the treatment groups received intragastric administration (0.1 mL/10 g) once a day for 4 consecutive days (D0-D3). The daily dosage of koumine and the positive control mesalazine to the treatment groups was the same as in Example 1, and the vehicle control group was given the same volumes of 50% ethanol. Bowel inflammation evaluation of the animals was conducted in the same manner using the same indicators as in Example 1.

[6] = mesalazine 100 mg/kg intragastric

With Nc1ccc(O)c(C(=O)O)c1 [mesalazine, reference compound] the “microscopic manifestations of HE-stained colonic tissue” value (shortened to “microscopic manifestations”) ([1]; mesalazine 100 mg/kg intragastric, FIG. 3 F) was “obvious improvements over the model group mice”, the histopathological scoring [1, 6] was “significantly inhibit increases in the sore of the model group” and the “enzymatic activity of MPO in colonic tissue” value (myeloperoxidase (MPO) [2]; [6]) was “significantly reduced enzymatic activity per unit weight”. The “expression of MPO in colonic tissue” value (myeloperoxidase (MPO) [3]; mesalazine 100 mg/kg intragastric, FIG. 9 F) was “suppressed expression of MPO to varying extents”, the “expression of MPO in colonic tissue” value (myeloperoxidase (MPO) [4]; mesalazine 100 mg/kg intragastric, FIG. 5 F) was “lowered the expression of MPO to different extents” and the “effect of alleviating body weight loss” value ([5]; mesalazine 100 mg/kg intragastric once a day D0-D3, FIG. 6) was “comparable to that of the medium dose of koumine”. For the same compound, the “positive effect on colon length” value ([5]; mesalazine 100 mg/kg intragastric, FIG. 7) was “comparable to that of koumine at 6 mg/kg” and the “microscopic manifestations” value ([5]; mesalazine 100 mg/kg intragastric, FIG. 8 F) was “infiltration of only a small number of inflammatory cells”.
For C=CC12CN(C)C3CC14C(=Nc1ccccc14)C1CC2C3CO1 (centres unmarked) [koumine], the defecation and hematochezia ([1]; high dose 6 mg/kg intragastric once a day) was “fewer times of defecation and mitigated hematochezia”, the “gross damage and hyperemia of bowel mucosa” value ([1]; koumine 0.67, 2, 6 mg/kg intragastric once a day) was “ameliorate damage, hyperemia and the like” and the “symptom of weight loss” value ([1]; koumine 0.67, 2, 6 mg/kg intragastric once a day D0-D8, FIG. 1) was “alleviate the symptom of weight loss”. For the same compound, the colon shortening ([1]; koumine 0.67, 2, 6 mg/kg intragastric once a day, FIG. 2) was “dose-dependently reduce colon shortening”, the “microscopic manifestations” value ([1]; koumine 0.67, 2, 6 mg/kg intragastric, FIG. 3 C-E) was “reduced inflammatory cell infiltration” and the histopathological scoring ([1]; koumine high dose 6 mg/kg intragastric) was “significantly inhibit increases in the sore of the model group”. For the same compound, the “average body weight vs model group” value ([1]; low dose 0.67 mg/kg intragastric once a day, as early as D6 (seventh day of administration), p<0.05, FIG. 1) was “significantly higher than that of those in the model group”, the “colon length vs model group” value ([1]; low dose 0.67 mg/kg intragastric, eighth day of administration, p<0.05, FIG. 2) was “significantly greater than that of the model group” and the defecation and hematochezia ([1]; medium dose 2 mg/kg intragastric once a day) was “fewer times of defecation and mitigated hematochezia”. The “average body weight vs model group” value ([1]; medium dose 2 mg/kg intragastric once a day, from D5 (sixth day of administration), p<0.05 and p<0.01, FIG. 1) was “significantly higher than that of those in the model group”, the “enzymatic activity of MPO in colonic tissue” value (myeloperoxidase (MPO) [2]; koumine at the different doses (0.67, 2, 6 mg/kg) intragastric) was “significantly reduced enzymatic activity per unit weight” and the “expression of MPO in colonic tissue” value (myeloperoxidase (MPO) [3]; koumine at the different doses (0.67, 2, 6 mg/kg) intragastric, FIG. 9 C-E) was “suppressed expression of MPO to varying extents”. The “expression of MPO in colonic tissue” value (myeloperoxidase (MPO) [4]; high dose 6 mg/kg intragastric, FIG. 5 E) was “lowered the expression of MPO to different extents”, the “expression of MPO in colonic tissue” value (myeloperoxidase (MPO) [4]; low dose 0.67 mg/kg intragastric, FIG. 5 C) was “did not lead to any noticeable decrease in the expression of MPO” and the “expression of MPO in colonic tissue” value (myeloperoxidase (MPO) [4]; medium dose 2 mg/kg intragastric, FIG. 5 D) was “lowered the expression of MPO to different extents”. The “gross manifestations of colonic tissue (hyperemia, redness and swelling)” value (“gross manifestations of colonic tissue” below) ([5]; high dose 6 mg/kg intragastric) was “remarkable relief of most manifestations of colonic tissue”, the “microscopic manifestations” value ([5]; high dose 6 mg/kg intragastric, FIG. 8 E) was “infiltration of only a small number of inflammatory cells” and the body weight loss ([5]; koumine 0.67, 2, 6 mg/kg intragastric once a day D0-D3, FIG. 6) was “alleviate body weight loss of mice with colitis in a dose-dependent manner”. The “positive effect on colon length” value ([5]; koumine 0.67, 2, 6 mg/kg intragastric, FIG. 7) was “dose-dependent”, the “gross manifestations of colonic tissue” value ([5]; low dose 0.67 mg/kg intragastric) was “appeared to not mitigate the manifestations” and the “microscopic manifestations” value ([5]; low dose 0.67 mg/kg intragastric, FIG. 8 C) was “slightly milder symptoms than the symptoms of the model group”. For the same compound, the colon shortening ([5]; low dose 0.67 mg/kg intragastric, p<0.01 vs model, FIG. 7) was “significantly reduce their colon shortening”, the “gross manifestations of colonic tissue” value ([5]; medium dose 2 mg/kg intragastric) was “not seen with severe redness and swelling, hyperemia or other inflammatory manifestations” and the “microscopic manifestations” value ([5]; medium dose 2 mg/kg intragastric, FIG. 8 D) was “infiltration of only a small number of inflammatory cells”.
